Data reported in US20160089439A1, “Prevention of Illicit Manufacutre of Methamphetamine from Pseudoephedrine Using Food Flavor Excipients” (Satara Pharmaceuticals, LLC, priority 2014, published 2016).

What was measured:
[1] = Reaction of excipient and pseudoephedrine with lithium in liquid ammonia, methamphetamine quantified; settings: for Relative percentage of methamphetamine formation, Li—NH3 Reduction: excipient 1.0 mmol + pseudoephedrine 1.0 mmol, pseudoephedrine only = 100
[2] = Reaction of excipient and pseudoephedrine with red phosphorous and hydriodic acid, methamphetamine quantified; settings: excipient 1.0 mmol + pseudoephedrine 1.0 mmol, 57% aqueous hydriodic acid, 90-100° C.; pseudoephedrine only = 100
[3] = species and route not given; cited from earlier work

## Cc1cnc(C)c(C)n1 [2,3,5-Trimethylpyrazine]
[1]
  Relative percentage of methamphetamine formation, Li—NH3 Reduction: 8%
[2]
  Relative percentage of methamphetamine formation, P—HI Reduction: 20%

## CC(=O)c1nccs1 [2-Acetylthiazole]
[1]
  Relative percentage of methamphetamine formation, Li—NH3 Reduction: <1%

## CCOc1cnc(C)cn1 [2-Ethoxy-5-methylpyrazine]
[1]
  Relative percentage of methamphetamine formation, Li—NH3 Reduction: 7%
[2]
  Relative percentage of methamphetamine formation, P—HI Reduction: 15%

## CCOc1cncc(C)n1 [2-Ethoxy-6-methylpyrazine]
[1]
  Relative percentage of methamphetamine formation, Li—NH3 Reduction: 4%
[2]
  Relative percentage of methamphetamine formation, P—HI Reduction: 13%

## COc1nccnc1CC(C)C [2-Isobutyl-3-methoxypyrazine]
[1]
  Relative percentage of methamphetamine formation, Li—NH3 Reduction: 2%
[2]
  Relative percentage of methamphetamine formation, P—HI Reduction: 27%

## COc1nccnc1C [2-Methoxy-3-methylpyrazine]
[1]
  Relative percentage of methamphetamine formation, Li—NH3 Reduction: <1%
[2]
  Relative percentage of methamphetamine formation, P—HI Reduction: 2.0%

## CC(=O)c1cnccn1 [Acetylpyrazine]
[1]
  Relative percentage of methamphetamine formation, Li—NH3 Reduction: <<1%
[1]; summary of Table 1, both Li—NH3 and P—HI reductions
  Inhibiting the conversion of pseudoephedrine to methamphetamine (in words): most effective among all of the pyrazine derivatives tested
[2]
  Relative percentage of methamphetamine formation, P—HI Reduction: 6%
[3]
  LD50: > 4000 mg/kg

## CC(C)COC(=O)c1ccccc1N [Isobutyl anthranilate]
[1]
  Relative percentage of methamphetamine formation, Li—NH3 Reduction: <1%
[2]
  Relative percentage of methamphetamine formation, P—HI Reduction: 2.3%
